Experiments:
Test in all cases: relative viability (nuclei count vs DMSO), 5 days (fraction); higher = more cells survive
Dovitinib + Linsitinib = compound: CN1CCN(c2ccc3nc(-c4c(N)c5c(F)cccc5[nH]c4=O)[nH]c3c2)CC1 [Dovitinib] + C[C@]1(O)C[C@@H](c2nc(-c3ccc4ccc(-c5ccccc5)nc4c3)c3c(N)nccn32)C1 [Linsitinib] (partner 1 µM)
Outline: (§1)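 Relative viability divides the nuclei count in treated wells by that in vehicle wells. Lung cancer cell lines were seeded in 1536-well plates, dosed by pin tool the next day, and fixed and stained after 5 days in one step with final 0.05% Triton X-100, 1% formaldehyde and 1 ug/ml Hoechst. Dosing was a single drug or a fixed anchor-drug dose plus five library-drug doses (not always all listed) in √10 steps, and values are medians of duplicate plates imaged at 4×.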

Dovitinib + Pemetrexed = compound: CN1CCN(c2ccc3nc(-c4c(N)c5c(F)cccc5[nH]c4=O)[nH]c3c2)CC1 [Dovitinib] + Nc1nc2[nH]cc(CCc3ccc(C(=O)N[C@@H](CCC(=O)O)C(=O)O)cc3)c2c(=O)[nH]1 [Pemetrexed] (partner 0.2 µM)
Outline: as §1

Dovitinib + Vorinostat = compound: CN1CCN(c2ccc3nc(-c4c(N)c5c(F)cccc5[nH]c4=O)[nH]c3c2)CC1 [Dovitinib] + O=C(CCCCCCC(=O)Nc1ccccc1)NO [Vorinostat] (partner 1 µM)
Outline: as §1

Dovitinib + Olaparib = compound: CN1CCN(c2ccc3nc(-c4c(N)c5c(F)cccc5[nH]c4=O)[nH]c3c2)CC1 [Dovitinib] + O=C(c1cc(Cc2n[nH]c(=O)c3ccccc23)ccc1F)N1CCN(C(=O)C2CC2)CC1 [Olaparib] (partner 8 µM)
Outline: as §1

With NCI-H322M the relative viability (Dovitinib + Linsitinib; first compound 0.02 µM) was 0.945, the relative viability (Dovitinib + Linsitinib; first compound 0.06325 µM) was 0.853 and the relative viability (Dovitinib + Linsitinib; first compound 0.2 µM) was 0.973. For the same cell line, the relative viability (Dovitinib + Linsitinib; first compound 0.6325 µM) was 0.943, the relative viability (Dovitinib + Linsitinib; first compound 2 µM) was 0.892 and the relative viability (Dovitinib + Pemetrexed; first compound 0.02 µM) was 0.597. The relative viability (Dovitinib + Pemetrexed; first compound 0.06325 µM) was 0.613, the relative viability (Dovitinib + Pemetrexed; first compound 0.2 µM) was 0.634 and the relative viability (Dovitinib + Pemetrexed; first compound 0.6325 µM) was 0.607. For the same cell line, the relative viability (Dovitinib + Pemetrexed; first compound 2 µM) was 0.6, the relative viability (Dovitinib + Vorinostat; first compound 0.02 µM) was 0.768 and the relative viability (Dovitinib + Vorinostat; first compound 0.06325 µM) was 0.831. The relative viability (Dovitinib + Vorinostat; first compound 0.2 µM) was 0.807, the relative viability (Dovitinib + Vorinostat; first compound 0.6325 µM) was 0.926 and the relative viability (Dovitinib + Vorinostat; first compound 2 µM) was 0.84. The relative viability (Dovitinib + Olaparib; first compound 0.02 µM) was 0.727, the relative viability (Dovitinib + Olaparib; first compound 0.06325 µM) was 0.697 and the relative viability (Dovitinib + Olaparib; first compound 0.2 µM) was 0.74. It also gave a relative viability (Dovitinib + Olaparib; first compound 0.6325 µM) of 0.858 and a relative viability (Dovitinib + Olaparib; first compound 2 µM) of 0.881.

NCI-H358 showed a relative viability (Dovitinib + Linsitinib; first compound 0.02 µM) of 0.743, a relative viability (Dovitinib + Linsitinib; first compound 0.06325 µM) of 0.656 and a relative viability (Dovitinib + Linsitinib; first compound 0.2 µM) of 0.826. For the same cell line, the relative viability (Dovitinib + Linsitinib; first compound 0.6325 µM) was 0.66, the relative viability (Dovitinib + Linsitinib; first compound 2 µM) was 0.854 and the relative viability (Dovitinib + Pemetrexed; first compound 0.02 µM) was 0.169. For the same cell line, the relative viability (Dovitinib + Pemetrexed; first compound 0.06325 µM) was 0.171, the relative viability (Dovitinib + Pemetrexed; first compound 0.2 µM) was 0.186 and the relative viability (Dovitinib + Pemetrexed; first compound 0.6325 µM) was 0.18. The relative viability (Dovitinib + Pemetrexed; first compound 2 µM) was 0.176, the relative viability (Dovitinib + Vorinostat; first compound 0.02 µM) was 0.673 and the relative viability (Dovitinib + Vorinostat; first compound 0.06325 µM) was 0.808. For the same cell line, the relative viability (Dovitinib + Vorinostat; first compound 0.2 µM) was 0.738, the relative viability (Dovitinib + Vorinostat; first compound 0.6325 µM) was 0.619 and the relative viability (Dovitinib + Vorinostat; first compound 2 µM) was 0.639. It also gave a relative viability (Dovitinib + Olaparib; first compound 0.02 µM) of 0.621, a relative viability (Dovitinib + Olaparib; first compound 0.06325 µM) of 0.658 and a relative viability (Dovitinib + Olaparib; first compound 0.2 µM) of 0.619. It also gave a relative viability (Dovitinib + Olaparib; first compound 0.6325 µM) of 0.543 and a relative viability (Dovitinib + Olaparib; first compound 2 µM) of 0.606.

For NCI-H441, the relative viability (Dovitinib + Linsitinib; first compound 0.02 µM) was 0.512, the relative viability (Dovitinib + Linsitinib; first compound 0.06325 µM) was 0.537 and the relative viability (Dovitinib + Linsitinib; first compound 0.2 µM) was 0.541. For the same cell line, the relative viability (Dovitinib + Linsitinib; first compound 0.6325 µM) was 0.599, the relative viability (Dovitinib + Linsitinib; first compound 2 µM) was 0.499 and the relative viability (Dovitinib + Pemetrexed; first compound 0.02 µM) was 0.257. It also gave a relative viability (Dovitinib + Pemetrexed; first compound 0.06325 µM) of 0.266, a relative viability (Dovitinib + Pemetrexed; first compound 0.2 µM) of 0.296 and a relative viability (Dovitinib + Pemetrexed; first compound 0.6325 µM) of 0.271. For the same cell line, the relative viability (Dovitinib + Pemetrexed; first compound 2 µM) was 0.24, the relative viability (Dovitinib + Vorinostat; first compound 0.02 µM) was 0.76 and the relative viability (Dovitinib + Vorinostat; first compound 0.06325 µM) was 0.795. For the same cell line, the relative viability (Dovitinib + Vorinostat; first compound 0.2 µM) was 0.849, the relative viability (Dovitinib + Vorinostat; first compound 0.6325 µM) was 0.628 and the relative viability (Dovitinib + Vorinostat; first compound 2 µM) was 0.772. The relative viability (Dovitinib + Olaparib; first compound 0.02 µM) was 0.513, the relative viability (Dovitinib + Olaparib; first compound 0.06325 µM) was 0.549 and the relative viability (Dovitinib + Olaparib; first compound 0.2 µM) was 0.534. The relative viability (Dovitinib + Olaparib; first compound 0.6325 µM) was 0.62 and the relative viability (Dovitinib + Olaparib; first compound 2 µM) was 0.588.

For NCI-H460, the relative viability (Dovitinib + Linsitinib; first compound 0.02 µM) was 0.758, the relative viability (Dovitinib + Linsitinib; first compound 0.06325 µM) was 0.904 and the relative viability (Dovitinib + Linsitinib; first compound 0.2 µM) was 0.834. It also gave a relative viability (Dovitinib + Linsitinib; first compound 0.6325 µM) of 0.74, a relative viability (Dovitinib + Linsitinib; first compound 2 µM) of 0.777 and a relative viability (Dovitinib + Pemetrexed; first compound 0.02 µM) of 0.0606. For the same cell line, the relative viability (Dovitinib + Pemetrexed; first compound 0.06325 µM) was 0.0581, the relative viability (Dovitinib + Pemetrexed; first compound 0.2 µM) was 0.0649 and the relative viability (Dovitinib + Pemetrexed; first compound 0.6325 µM) was 0.0683. The relative viability (Dovitinib + Pemetrexed; first compound 2 µM) was 0.0626, the relative viability (Dovitinib + Vorinostat; first compound 0.02 µM) was 0.682 and the relative viability (Dovitinib + Vorinostat; first compound 0.06325 µM) was 0.77. The relative viability (Dovitinib + Vorinostat; first compound 0.2 µM) was 0.729, the relative viability (Dovitinib + Vorinostat; first compound 0.6325 µM) was 0.711 and the relative viability (Dovitinib + Vorinostat; first compound 2 µM) was 0.711. For the same cell line, the relative viability (Dovitinib + Olaparib; first compound 0.02 µM) was 0.372, the relative viability (Dovitinib + Olaparib; first compound 0.06325 µM) was 0.488 and the relative viability (Dovitinib + Olaparib; first compound 0.2 µM) was 0.403. The relative viability (Dovitinib + Olaparib; first compound 0.6325 µM) was 0.426 and the relative viability (Dovitinib + Olaparib; first compound 2 µM) was 0.411.

In the case of NCI-H520, the relative viability (Dovitinib + Linsitinib; first compound 0.02 µM) is reported as 0.832, the relative viability (Dovitinib + Linsitinib; first compound 0.06325 µM) is reported as 0.964 and the relative viability (Dovitinib + Linsitinib; first compound 0.2 µM) is reported as 0.986. For the same cell line, the relative viability (Dovitinib + Linsitinib; first compound 0.6325 µM) was 0.868, the relative viability (Dovitinib + Linsitinib; first compound 2 µM) was 1.07 and the relative viability (Dovitinib + Pemetrexed; first compound 0.02 µM) was 0.687. For the same cell line, the relative viability (Dovitinib + Pemetrexed; first compound 0.06325 µM) was 0.683, the relative viability (Dovitinib + Pemetrexed; first compound 0.2 µM) was 0.615 and the relative viability (Dovitinib + Pemetrexed; first compound 0.6325 µM) was 0.596. For the same cell line, the relative viability (Dovitinib + Pemetrexed; first compound 2 µM) was 0.635, the relative viability (Dovitinib + Vorinostat; first compound 0.02 µM) was 0.765 and the relative viability (Dovitinib + Vorinostat; first compound 0.06325 µM) was 0.698. The relative viability (Dovitinib + Vorinostat; first compound 0.2 µM) was 0.62, the relative viability (Dovitinib + Vorinostat; first compound 0.6325 µM) was 0.656 and the relative viability (Dovitinib + Vorinostat; first compound 2 µM) was 0.643. For the same cell line, the relative viability (Dovitinib + Olaparib; first compound 0.02 µM) was 0.358, the relative viability (Dovitinib + Olaparib; first compound 0.06325 µM) was 0.315 and the relative viability (Dovitinib + Olaparib; first compound 0.2 µM) was 0.332. The relative viability (Dovitinib + Olaparib; first compound 0.6325 µM) was 0.33 and the relative viability (Dovitinib + Olaparib; first compound 2 µM) was 0.389.

With NCI-H596 the relative viability (Dovitinib + Linsitinib; first compound 0.02 µM) was 1.03, the relative viability (Dovitinib + Linsitinib; first compound 0.06325 µM) was 1.01 and the relative viability (Dovitinib + Linsitinib; first compound 0.2 µM) was 1.09. The relative viability (Dovitinib + Linsitinib; first compound 0.6325 µM) was 0.96, the relative viability (Dovitinib + Linsitinib; first compound 2 µM) was 0.954 and the relative viability (Dovitinib + Pemetrexed; first compound 0.02 µM) was 0.512. It also gave a relative viability (Dovitinib + Pemetrexed; first compound 0.06325 µM) of 0.493, a relative viability (Dovitinib + Pemetrexed; first compound 0.2 µM) of 0.506 and a relative viability (Dovitinib + Pemetrexed; first compound 0.6325 µM) of 0.51. The relative viability (Dovitinib + Pemetrexed; first compound 2 µM) was 0.532, the relative viability (Dovitinib + Vorinostat; first compound 0.02 µM) was 0.746 and the relative viability (Dovitinib + Vorinostat; first compound 0.06325 µM) was 0.606. The relative viability (Dovitinib + Vorinostat; first compound 0.2 µM) was 0.569, the relative viability (Dovitinib + Vorinostat; first compound 0.6325 µM) was 0.517 and the relative viability (Dovitinib + Vorinostat; first compound 2 µM) was 0.694. It also gave a relative viability (Dovitinib + Olaparib; first compound 0.02 µM) of 0.672, a relative viability (Dovitinib + Olaparib; first compound 0.06325 µM) of 0.688 and a relative viability (Dovitinib + Olaparib; first compound 0.2 µM) of 0.65. It also gave a relative viability (Dovitinib + Olaparib; first compound 0.6325 µM) of 0.687 and a relative viability (Dovitinib + Olaparib; first compound 2 µM) of 0.627.

For NCI-H647, the relative viability (Dovitinib + Linsitinib; first compound 0.02 µM) was 1.1, the relative viability (Dovitinib + Linsitinib; first compound 0.06325 µM) was 1.15 and the relative viability (Dovitinib + Linsitinib; first compound 0.2 µM) was 1.16. It also gave a relative viability (Dovitinib + Linsitinib; first compound 0.6325 µM) of 1.06, a relative viability (Dovitinib + Linsitinib; first compound 2 µM) of 1.27 and a relative viability (Dovitinib + Pemetrexed; first compound 0.02 µM) of 0.194. For the same cell line, the relative viability (Dovitinib + Pemetrexed; first compound 0.06325 µM) was 0.189, the relative viability (Dovitinib + Pemetrexed; first compound 0.2 µM) was 0.154 and the relative viability (Dovitinib + Pemetrexed; first compound 0.6325 µM) was 0.191. The relative viability (Dovitinib + Pemetrexed; first compound 2 µM) was 0.177, the relative viability (Dovitinib + Vorinostat; first compound 0.02 µM) was 0.52 and the relative viability (Dovitinib + Vorinostat; first compound 0.06325 µM) was 0.658. The relative viability (Dovitinib + Vorinostat; first compound 0.2 µM) was 0.659, the relative viability (Dovitinib + Vorinostat; first compound 0.6325 µM) was 0.434 and the relative viability (Dovitinib + Vorinostat; first compound 2 µM) was 0.851. It also gave a relative viability (Dovitinib + Olaparib; first compound 0.02 µM) of 0.578, a relative viability (Dovitinib + Olaparib; first compound 0.06325 µM) of 0.538 and a relative viability (Dovitinib + Olaparib; first compound 0.2 µM) of 0.5. The relative viability (Dovitinib + Olaparib; first compound 0.6325 µM) was 0.418 and the relative viability (Dovitinib + Olaparib; first compound 2 µM) was 0.675.

Source: the supplement of paper PMC10307832
